Results reported in US20230365582A1, “NOVEL COMPOUNDS HAVING INHIBITORY ACTIVITY ON PROSTAGLANDIN E2 RECEPTOR AND USES THEREOF” (KANAPH THERAPEUTICS INC., priority 2020, published 2023).

Tests used:
hEP4 = target: T1, hEP4 (Homo sapiens, UniProt P35408); assay: hEP4 cAMP assay; format: cell-based; settings: HEK293 cells overexpressing hEP4; PGE2 agonist 20 nM; graded per Table 21; read-out: IC50 (nM) EP4 cAMP
T1 construct: expressed in transfected cells; host or cells: HEK293
Outline: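 HEK293 cells overexpressing hEP4, starved 4 h, were treated with compound (10 μM-0.001 nM) plus 20 nM PGE2 (EC50-80) in HBSS buffer with 0.5 mM IBMX for 18.5 min at room temperature. cAMP was read by TR-FRET (665/615 nm) as % of DMSO control; IC50 from 4-parameter fit, median of multiple experiments.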

hEP2 = target: T2, hEP2 (Homo sapiens, UniProt P43116); assay: hEP2 cAMP assay; format: cell-based; settings: HEK293 cells overexpressing hEP2; PGE2 agonist 400 pM; graded per Table 21; read-out: IC50 (nM) EP2 cAMP
T2 construct: expressed in transfected cells; host or cells: HEK293
Outline: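 HEK293 cells overexpressing hEP2, serum-starved 4 h, then 1,000 cells/well treated with compound (10 μM–0.001 nM) plus 400 pM PGE2 (about EC50-80) in HBSS buffer with 0.5 mM IBMX for 12 min at room temperature. cAMP measured by TR-FRET (665/615 nm) as % of DMSO control; IC50 from 4-parameter fit, median of repeats.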

T2 sequence (P43116 whole entry): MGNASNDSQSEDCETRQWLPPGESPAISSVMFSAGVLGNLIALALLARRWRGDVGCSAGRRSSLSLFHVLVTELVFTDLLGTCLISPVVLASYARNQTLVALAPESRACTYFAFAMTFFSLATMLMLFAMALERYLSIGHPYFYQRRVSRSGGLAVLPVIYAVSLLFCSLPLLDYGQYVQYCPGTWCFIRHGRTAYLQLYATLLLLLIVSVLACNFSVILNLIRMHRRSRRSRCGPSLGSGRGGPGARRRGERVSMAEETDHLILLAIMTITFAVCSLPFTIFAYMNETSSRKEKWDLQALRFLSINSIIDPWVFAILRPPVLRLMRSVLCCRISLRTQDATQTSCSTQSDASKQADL
T1 sequence (P35408 whole entry): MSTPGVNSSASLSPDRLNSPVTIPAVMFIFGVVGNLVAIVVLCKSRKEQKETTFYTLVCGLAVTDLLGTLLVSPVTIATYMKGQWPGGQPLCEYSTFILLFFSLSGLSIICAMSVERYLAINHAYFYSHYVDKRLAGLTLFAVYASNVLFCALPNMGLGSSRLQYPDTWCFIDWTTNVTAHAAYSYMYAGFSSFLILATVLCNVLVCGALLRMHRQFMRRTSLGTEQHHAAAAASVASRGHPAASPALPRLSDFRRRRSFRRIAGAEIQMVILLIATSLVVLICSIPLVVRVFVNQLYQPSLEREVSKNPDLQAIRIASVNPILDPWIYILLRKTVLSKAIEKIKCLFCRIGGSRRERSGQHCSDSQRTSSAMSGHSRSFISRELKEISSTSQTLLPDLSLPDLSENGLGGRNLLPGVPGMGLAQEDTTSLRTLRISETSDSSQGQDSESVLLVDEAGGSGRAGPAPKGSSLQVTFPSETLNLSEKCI

IC50 (hEP4) | IC50 (hEP2) | SMILES
< 500 nM | 5000 to 10000 nM | O=C(NC1CC2(C1)CC(C(=O)O)C2)c1c(Cl)sc(Cl)c1Cc1ccc(-c2ccccc2)cc1 (stereo not drawn) [Example 17, 6-(4-([1,1′-biphenyl]-4-ylmethyl)-2,5-dichlorothiophene-3-carboxamido)spiro[3.3]heptane-2-carboxylic acid]
< 500 nM | 500 to 5000 nM | COc1cc(F)cc(-c2ccc(Cn3ccc4scc(C(=O)NC5CC6(C5)CC(C(=O)O)C6)c43)nc2)c1 (stereo not drawn) [Example 113, 6-(4-((5-(3-fluoro-5-methoxyphenyl)pyridin-2-yl)methyl)-4H-thieno[3,2-b]pyrrole-3-carboxamido)spiro[3.3]heptane-2-carboxylic acid]
500 to 5000 nM | > 10000 nM | O=C(NC1CC2(C1)CC(C(=O)O)C2)c1csc2ccn(Cc3ccc(-n4cccn4)cc3)c12 (stereo not drawn) [Example 107, 6-(4-(4-(1H-pyrazol-1-yl)benzyl)-4H-thieno[3,2-b]pyrrole-3-carboxamido)spiro[3.3]heptane-2-carboxylic acid]
< 500 nM | 500 to 5000 nM | Cc1sc(C)c(C(=O)NC2CC3(C2)CC(C(=O)O)C3)c1Cc1ccc(-c2cccc(C(F)(F)F)c2)cc1 (stereo not drawn) [Example 44, 6-(2,5-dimethyl-4-((3′-(trifluoromethyl)-[1,1′-biphenyl]-4-yl)methyl)thiophene-3-carboxamido)spiro[3.3]heptane-2-carboxylic acid]
< 500 nM | 500 to 5000 nM | COc1cncc(-c2ccc(Cn3ccc4scc(C(=O)NC5CC6(C5)CC(C(=O)O)C6)c43)cc2)c1 (stereo not drawn) [Example 101, 6-(4-(4-(5-methoxypyridin-3-yl)benzyl)-4H-thieno[3,2-b]pyrrole-3-carboxamido)spiro[3.3]heptane-2-carboxylic acid]
< 500 nM | > 10000 nM | Cc1sc(C)c(C(=O)NC2CC3(C2)CC(C(=O)O)C3)c1Cc1ccc(-c2cccc(C#N)c2)cc1 (stereo not drawn) [Example 30]
5000 to 10000 nM | > 10000 nM | Cc1sc(C)c(C(=O)NC2CC3(C2)CC(C(=O)O)C3)c1Cc1ccc(C2CCCCC2)cc1 (stereo not drawn) [Example 67, 6-(4-(4-cyclohexylbenzyl)-2,5-dimethylthiophene-3-carboxamido)spiro[3.3]heptane-2-carboxylic acid]
> 10000 nM | > 10000 nM | Cc1sc(C)c(C(=O)NC2CC3(C2)CC(C(=O)O)C3)c1Cc1ccc(-c2ccnc(O)c2)cc1 (stereo not drawn) [Example 72, 6-(4-(4-(2-hydroxypyridin-4-yl)benzyl)-2,5-dimethylthiophene-3-carboxamido)spiro[3.3]heptane-2-carboxylic acid]
< 500 nM | 500 to 5000 nM | COc1cc(C(N)=O)cc(-c2ccc(Cc3c(C)sc(C)c3C(=O)NC3CC4(C3)CC(C(=O)O)C4)cc2)c1 (stereo not drawn) [Example 58, 6-(4-((3′-carbamoyl-5′-methoxy-[1,1′-biphenyl]-4-yl)methyl)-2,5-dimethylthiophene-3-carboxamido)spiro[3.3]heptane-2-carboxylic acid]
500 to 5000 nM | > 10000 nM | COc1ccccc1-c1ccc(Cc2c(C)sc(C)c2C(=O)NC2CC3(C2)CC(C(=O)O)C3)cc1 (stereo not drawn) [Example 24, 6-(4-((2′-methoxy-[1,1′-biphenyl]-4-yl)methyl)-2,5-dimethylthiophene-3-carboxamido)spiro[3.3] heptane-2-carboxylic acid]
< 500 nM | 5000 to 10000 nM | Cc1sc(C)c(C(=O)NC2CC3(C2)CC(C(=O)O)C3)c1Cc1ccc(-c2cc(F)cc(C#N)c2)cc1 (stereo not drawn) [Example 70, 6-(4-((3′-cyano-5′-fluoro-[1,1′-biphenyl]-4-yl)methyl)-2,5-dimethylthiophene-3-carboxamido)spiro[3.3]heptane-2-carboxylic acid]
< 500 nM | 500 to 5000 nM | CCOc1cc(F)cc(-c2ccc(Cc3c(C)sc(C)c3C(=O)NC3CC4(C3)CC(C(=O)O)C4)cc2)c1 (stereo not drawn) [Example 45, 6-(4-((3′-ethoxy-5′-fluoro-[1,1′-biphenyl]-4-yl)methyl)-2,5-dimethylthiophene-3-carboxamido)spiro[3.3]heptane-2-carboxylic acid]
< 500 nM | 500 to 5000 nM | Cc1sc(C)c(C(=O)NC2CC3(C2)CC(C(=O)O)C3)c1Cc1ccc(-c2ccc(F)cc2)cc1 (stereo not drawn) [Example 69, 6-(4-((4′-fluoro-[1,1′-biphenyl]-4-yl)methyl)-2,5-dimethylthiophene-3-carboxamido)spiro[3.3]heptane-2-carboxylic acid]
< 500 nM | 500 to 5000 nM | Cc1sc(C)c(C(=O)NC2CC3(C2)CC(C(=O)O)C3)c1Cc1ccc(-c2cccc(F)c2)cc1 (stereo not drawn) [Example 43, 6-(4-((3′-fluoro-[1,1′-biphenyl]-4-yl)methyl)-2,5-dimethylthiophene-3-carboxamido)spiro[3.3]heptane-2-carboxylic acid]
5000 to 10000 nM | > 10000 nM | Cc1sc(C)c(C(=O)NC2CC3(C2)CC(C(=O)O)C3)c1Cc1ccc(-c2cc(F)cc(S(C)(=O)=O)c2)cc1 (stereo not drawn) [Example 56, 6-(4-((3′-fluoro-5′-(methylsulfonyl)-[1,1′-biphenyl]-4-yl)methyl)-2,5-dimethylthiophene-3-carboxamido)spiro[3.3]heptane-2-carboxylic acid]
5000 to 10000 nM | > 10000 nM | Cc1sc(C)c(C(=O)NC2CC3(C2)CC(C(=O)O)C3)c1Cc1ccc(-c2ccc(F)c(C(=O)O)c2)cc1 (stereo not drawn) [Example 37, 6-(4-((3′-carboxy-4′-fluoro-[1,1′-biphenyl]-4-yl)methyl)-2,5-dimethylthiophene-3-carboxamido)spiro[3.3]heptane-2-carboxylic acid]
< 500 nM | > 10000 nM | COc1ccc(F)cc1-c1ccc(Cc2c(C)sc(C)c2C(=O)NC2CC3(C2)CC(C(=O)O)C3)cc1 (stereo not drawn) [Example 48, 6-(4-((5′-fluoro-2′-methoxy-[1,1′-biphenyl]-4-yl)methyl)-2,5-dimethylthiophene-3-carboxamido)spiro[3.3]heptane-2-carboxylic acid]
> 10000 nM | > 10000 nM | Cc1sc(C)c(C(=O)NC2CC3(C2)CC(C(=O)O)C3)c1CCc1ccc(-c2ccccc2)cc1 (stereo not drawn) [Example 6, 6-(4-(2-([1,1′-biphenyl]-4-yl)ethyl)-2,5-dimethylthiophene-3-carboxamido)spiro[3.3]heptane-2-carboxylic acid]
500 to 5000 nM | > 10000 nM | O=C(NC1CC2(C1)CC(C(=O)O)C2)c1csc2ccn(CC#Cc3ccccc3)c12 (stereo not drawn) [Example 98, 6-(2-4-(3-phenylprop-2-yn-1-yl)-4H-thieno[3,2-b]pyrrole-3-carboxamido)spiro[3.3]heptane-2-carboxylic acid]
500 to 5000 nM | > 10000 nM | Cc1sc(C)c(C(=O)NC2CC3(C2)CC(C(=O)O)C3)c1Cc1ccc(-c2ccncc2)cc1 (stereo not drawn) [Example 26, 6-(2,5-dimethyl-4-(4-(pyridin-4-yl)benzyl)thiophene-3-carboxamido)spiro[3.3]heptane-2-carboxylic acid]

SMILES | IC50 (hEP4) | IC50 (hEP2)
Cc1sc(C)c(C(=O)NC2CC3(C2)CC(C(=O)O)C3)c1Cc1ccc(-c2ccc(C(=O)OC(C)(C)C)cc2)cc1 (stereo not drawn) [Example 36, 6-(4-((4′-(tert-butoxycarbonyl)-[1,1′-biphenyl]-4-yl)methyl)-2,5-dimethylthiophene-3-carboxamido)spiro[3.3]heptane-2-carboxylic acid] | < 500 nM | 5000 to 10000 nM
